According to patent US10556888B2, “Pyrazole compounds or salts thereof, preparation methods therefor, herbicidal compositions and use thereof” (QINGDAO KINGAGROOT CHEMICAL COMPOUNDS CO., LTD, priority 2015, dated 2020):

What was measured:
[1] = test system: Monocotyledonous and dicotyledonous weed; assay: Post-emergence test experiment, weed control effect (Table 2); type: in vivo; parameters: key to weed control effect, Setaria viridis (level) / weed control effect, Rorippa indica (level) / weed control effect, Abutilon theophrasti (level) / weed control effect, Echinochloa crus-galli (level) / weed control effect, Digitaria sanguinalis (level): Level 10: completely dead; Level 9: above 90% growth inhibition rate; Level 8: above 80% growth inhibition rate; Level 7: above 70% growth inhibition rate; Level 6: above 60% growth inhibition rate; Level 5: above 50% growth inhibition rate; Level 4: above 30% growth inhibition rate; Level 3: above 20% growth inhibition rate; Level 2: above 10% growth inhibition rate; Level 1: above 1-10% growth inhibition rate; Level 0: no effect; details: 3 weeks after spraying, greenhouse
Protocol: (§1) Post-emergence test experiment: Monocotyledonous and dicotyledonous weed seeds and main crop seeds (i.e. wheat, corn, rice, soybean, cotton, oilseed, millet and sorghum.) were put into a plastic pot loaded with soil. Then covered with 0.5-2 cm soil, the seeds were allowed to grow in good greenhouse environment. The test plants were treated at 2-3 leaf stage 2-3 weeks after sowing. The test compounds of the invention were dissolved with acetone respectively, then added with 80 tween and diluted by certain amount of water to certain concentration. The solution was sprayed to the plants with a sprayer. Then the plants were cultured for 3 weeks in the greenhouse.

[2] = test system: main crop (wheat, corn, rice, soybean, cotton, oilseed, millet and sorghum); assay: Post-emergence test experiment, main crops (Table 2); type: in vivo; parameters: key: Level 10: completely dead; Level 9: above 90% growth inhibition rate; Level 8: above 80% growth inhibition rate; Level 7: above 70% growth inhibition rate; Level 6: above 60% growth inhibition rate; Level 5: above 50% growth inhibition rate; Level 4: above 30% growth inhibition rate; Level 3: above 20% growth inhibition rate; Level 2: above 10% growth inhibition rate; Level 1: above 1-10% growth inhibition rate; Level 0: no effect; details: 3 weeks after spraying, greenhouse
Protocol: as §1

Row | SMILES | weed control effect, Abutilon theophrasti (level) ([1]; 120 g/ha) | weed control effect, Bidens pilosa (level) ([1]; 120 g/ha) | weed control effect, Digitaria sanguinalis (level) ([1]; 120 g/ha) | weed control effect, Echinochloa crus-galli (level) ([1]; 120 g/ha) | weed control effect, Rorippa indica (level) ([1]; 120 g/ha) | weed control effect, Setaria viridis (level) ([1]; 120 g/ha) | effect on crop, corn (level) ([2]; 120 g/ha) | effect on crop, rice (level) ([2]; 120 g/ha) | effect on crop, wheat (level) ([2]; 120 g/ha) | weed control effect, Abutilon theophrasti (level) ([1]; 30 g/ha) | weed control effect, Bidens pilosa (level) ([1]; 30 g/ha) | weed control effect, Digitaria sanguinalis (level) ([1]; 30 g/ha) | weed control effect, Echinochloa crus-galli (level) ([1]; 30 g/ha) | weed control effect, Rorippa indica (level) ([1]; 30 g/ha) | weed control effect, Setaria viridis (level) ([1]; 30 g/ha) | effect on crop, corn (level) ([2]; 30 g/ha) | effect on crop, rice (level) ([2]; 30 g/ha) | effect on crop, wheat (level) ([2]; 30 g/ha) | other results
1 | Cn1cc(C(=O)Oc2c(C(=O)c3ccc(S(C)(=O)=O)c(Cn4cccn4)c3Cl)c(C3CC3)nn2C)cn1 [Compound 19] |  |  |  |  |  |  |  |  |  |  |  |  |  |  |  |  |  |  | weed control effect, Abutilon theophrasti (level) ([1]; 60 g/ha): 10; weed control effect, Bidens pilosa (level) ([1]; 60 g/ha): 8 (Level 8: above 80% growth inhibition rate); weed control effect, Digitaria sanguinalis (level) ([1]; 60 g/ha): 10; weed control effect, Echinochloa crus-galli (level) ([1]; 60 g/ha): 10; weed control effect, Rorippa indica (level) ([1]; 60 g/ha): 10; weed control effect, Setaria viridis (level) ([1]; 60 g/ha): 8 (Level 8: above 80% growth inhibition rate); effect on crop, corn (level) ([2]; 60 g/ha): 0; effect on crop, rice (level) ([2]; 60 g/ha): 1 (Level 1: above 1-10% growth inhibition rate); effect on crop, wheat (level) ([2]; 60 g/ha): 0
2 | Cc1ccn(Cc2c(S(C)(=O)=O)ccc(C(=O)c3c(C4CC4)nn(C)c3OC(=O)c3cn(C)nc3C)c2Cl)n1 [Compound 09] | 7 (Level 7: above 70% growth inhibition rate) | 9 (Level 9: above 90% growth inhibition rate) | 2 (Level 2: above 10% growth inhibition rate) | 9 (Level 9: above 90% growth inhibition rate) | 10 | 6 (Level 6: above 60% growth inhibition rate) | 0 | 1 (Level 1: above 1-10% growth inhibition rate) | 0 |  |  |  |  |  |  |  |  |  | 
3 | CCn1nc(C)c(C(=O)c2ccc(S(C)(=O)=O)c(Cn3cccn3)c2Cl)c1OC(=O)c1cn(C)nc1C [Compound 89] |  |  |  |  |  |  |  |  |  | 7 (Level 7: above 70% growth inhibition rate) | 7 (Level 7: above 70% growth inhibition rate) | 7 (Level 7: above 70% growth inhibition rate) | 10 | 10 | 8 (Level 8: above 80% growth inhibition rate) | 1 (Level 1: above 1-10% growth inhibition rate) | 1 (Level 1: above 1-10% growth inhibition rate) | 0 | 
4 | CCOc1c(C(=O)Oc2c(C(=O)c3ccc(S(C)(=O)=O)c(Cn4nc(C)cc4C)c3Cl)cnn2CC)cnn1C [Compound 93] | 6 (Level 6: above 60% growth inhibition rate) | 6 (Level 6: above 60% growth inhibition rate) | 1 (Level 1: above 1-10% growth inhibition rate) | 10 | 4 (Level 4: above 30% growth inhibition rate) | 3 (Level 3: above 20% growth inhibition rate) | 0 | 0 | 0 |  |  |  |  |  |  |  |  |  | 
5 | COCCCOCc1c(S(C)(=O)=O)ccc(C(=O)c2cnn(C)c2OC(=O)c2cn(C)nc2C)c1Cl [Compound 53] |  |  |  |  |  |  |  |  |  | 7 (Level 7: above 70% growth inhibition rate) | 7 (Level 7: above 70% growth inhibition rate) | 8 (Level 8: above 80% growth inhibition rate) | 10 | 10 | 6 (Level 6: above 60% growth inhibition rate) | 1 (Level 1: above 1-10% growth inhibition rate) | 3 (Level 3: above 20% growth inhibition rate) | 0 | 
6 | Cc1ccn(Cc2c(S(C)(=O)=O)ccc(C(=O)c3c(C4CC4)nn(C)c3OC(=O)c3cnn(C)c3)c2Cl)n1 [Compound 21] | 6 (Level 6: above 60% growth inhibition rate) | 6 (Level 6: above 60% growth inhibition rate) | 1 (Level 1: above 1-10% growth inhibition rate) | 10 | 4 (Level 4: above 30% growth inhibition rate) | 3 (Level 3: above 20% growth inhibition rate) | 0 | 0 | 0 |  |  |  |  |  |  |  |  |  | 
7 | Cc1ccn(Cc2c(S(C)(=O)=O)ccc(C(=O)c3c(C)nn(C)c3OC(=O)c3cnn(C)c3)c2Cl)n1 [Compound 15] | 9 (Level 9: above 90% growth inhibition rate) | 8 (Level 8: above 80% growth inhibition rate) | 4 (Level 4: above 30% growth inhibition rate) | 10 | 10 | 5 (Level 5: above 50% growth inhibition rate) | 0 | 1 (Level 1: above 1-10% growth inhibition rate) | 0 |  |  |  |  |  |  |  |  |  | 
8 | C#CCOCc1c(S(C)(=O)=O)ccc(C(=O)c2c(C3CC3)nn(C)c2OC(=O)c2cn(C)nc2C)c1Cl [Compound 47] |  |  |  |  |  |  |  |  |  | 7 (Level 7: above 70% growth inhibition rate) | 7 (Level 7: above 70% growth inhibition rate) | 7 (Level 7: above 70% growth inhibition rate) | 10 | 10 | 9 (Level 9: above 90% growth inhibition rate) | 0 | 3 (Level 3: above 20% growth inhibition rate) | 0 | 
9 | Cc1nn(C)cc1C(=O)Oc1c(C(=O)c2ccc(S(C)(=O)=O)c(Cn3cccn3)c2Cl)c(C2CC2)nn1C [Compound 13] |  |  |  |  |  |  |  |  |  |  |  |  |  |  |  |  |  |  | weed control effect, Abutilon theophrasti (level) ([1]; 60 g/ha): 10; weed control effect, Bidens pilosa (level) ([1]; 60 g/ha): 8 (Level 8: above 80% growth inhibition rate); weed control effect, Digitaria sanguinalis (level) ([1]; 60 g/ha): 10; weed control effect, Echinochloa crus-galli (level) ([1]; 60 g/ha): 10; weed control effect, Rorippa indica (level) ([1]; 60 g/ha): 10; weed control effect, Setaria viridis (level) ([1]; 60 g/ha): 7 (Level 7: above 70% growth inhibition rate); effect on crop, corn (level) ([2]; 60 g/ha): 0; effect on crop, rice (level) ([2]; 60 g/ha): 1 (Level 1: above 1-10% growth inhibition rate); effect on crop, wheat (level) ([2]; 60 g/ha): 1 (Level 1: above 1-10% growth inhibition rate)
10 | Cc1nn(C)cc1C(=O)Oc1c(C(=O)c2ccc(S(C)(=O)=O)c(Cn3cccn3)c2Cl)cnn1C [Compound 08] |  |  |  |  |  |  |  |  |  |  |  |  |  |  |  |  |  |  | weed control effect, Abutilon theophrasti (level) ([1]; 60 g/ha): 10; weed control effect, Bidens pilosa (level) ([1]; 60 g/ha): 8 (Level 8: above 80% growth inhibition rate); weed control effect, Digitaria sanguinalis (level) ([1]; 60 g/ha): 7 (Level 7: above 70% growth inhibition rate); weed control effect, Echinochloa crus-galli (level) ([1]; 60 g/ha): 9 (Level 9: above 90% growth inhibition rate); weed control effect, Rorippa indica (level) ([1]; 60 g/ha): 10; weed control effect, Setaria viridis (level) ([1]; 60 g/ha): 7 (Level 7: above 70% growth inhibition rate); effect on crop, corn (level) ([2]; 60 g/ha): 1 (Level 1: above 1-10% growth inhibition rate); effect on crop, rice (level) ([2]; 60 g/ha): 1 (Level 1: above 1-10% growth inhibition rate); effect on crop, wheat (level) ([2]; 60 g/ha): 1 (Level 1: above 1-10% growth inhibition rate)
11 | CC=CCOCc1c(S(C)(=O)=O)ccc(C(=O)c2cnn(C)c2OC(=O)c2cn(C)nc2C)c1Cl [Compound 43] |  |  |  |  |  |  |  |  |  | 7 (Level 7: above 70% growth inhibition rate) | 7 (Level 7: above 70% growth inhibition rate) | 7 (Level 7: above 70% growth inhibition rate) | 10 | 10 | 9 (Level 9: above 90% growth inhibition rate) | 0 | 3 (Level 3: above 20% growth inhibition rate) | 0 | 
12 | COCCOCc1c(S(C)(=O)=O)ccc(C(=O)c2c(C)nn(C)c2OC(=O)c2cn(C)nc2C)c1Cl [Compound 28] |  |  |  |  |  |  |  |  |  | 7 (Level 7: above 70% growth inhibition rate) | 7 (Level 7: above 70% growth inhibition rate) | 7 (Level 7: above 70% growth inhibition rate) | 9 (Level 9: above 90% growth inhibition rate) | 5 (Level 5: above 50% growth inhibition rate) | 5 (Level 5: above 50% growth inhibition rate) | 0 | 6 (Level 6: above 60% growth inhibition rate) | 0 | 
13 | Cc1cc(C)n(Cc2c(S(C)(=O)=O)ccc(C(=O)c3c(C4CC4)nn(C)c3OC(=O)c3cn(C)nc3C)c2Cl)n1 [Compound 11] | 4 (Level 4: above 30% growth inhibition rate) | 6 (Level 6: above 60% growth inhibition rate) | 0 | 10 | 0 | 6 (Level 6: above 60% growth inhibition rate) | 0 | 0 | 0 |  |  |  |  |  |  |  |  |  | 
